In US10189810B2, “Pyrazolyl-substituted pyridone compounds as serine protease inhibitors” (VERSEON CORPORATION, priority 2014, dated 2019):
pIC50: −log10 of the molar value.

Key:
Human KLKB1 protein = molecular target: T1, Human KLKB1 protein (Homo sapiens, UniProt P03952); experiment: KLKB1 kallikrein protease inhibition assay (chromogenic substrate S-2302); format: biochemical; conditions: 3 nM KLKB1, 250 μM S-2302, 10 min pre-incubation, RT, read at 405 nm
T1 construct: purchased Enzyme Research Labs
Procedure: The KLKB1 kallikrein activity reported herein (e.g., Table A) was obtained as follows. Human KLKB1 protein was obtained from Enzyme Research Labs. The chromogenic substrate S-2302 was obtained from DiaPharma. KLKB1 was assayed in buffer containing 0.05 M Tris (pH 7.4), 0.01 M NaCl and 0.2% w/v PEG-8000. The final concentration of enzyme used was 3 nM KLKB1. The final concentration of substrate used was 250 μM S-2302 for KLKB1. All assays were performed in 96-well microtiter plates at room temperature (RT). […] The plate was read at 10 minutes after substrate addition. The IC50 was calculated by plotting the percent (%) inhibition against compound concentration and fitting the data to a constrained four parameter sigmoidal curve, as known in the art.

Human thrombin = molecular target: T2, Human thrombin (Homo sapiens, UniProt P00734); experiment: thrombin protease inhibition assay (chromogenic substrate S-2238); format: biochemical; conditions: 3 nM thrombin, 125 μM S-2238, 10 min pre-incubation, RT, read at 405 nm
T2 construct: Thrombin (fIIa, the active form of prothrombin) is another serine protease; purchased Haematologic Technologies Inc
Procedure: The thrombin activity reported herein (e.g., Table A) was obtained as follows. […] Thrombin was assayed in buffer containing 0.05 M Tris (pH 7.4), 0.015 M NaCl and 0.01% PEG-8000. The final concentration of enzyme used was 3 nM thrombin. […] All assays were performed in 96-well microtiter plates at room temperature (RT). […] Inhibitor IC50 values were determined by adding test compound as ten point, three-fold serial dilutions in buffer solution, as known in the art. The plate was read at 10 minutes after substrate addition. The IC50 was calculated by plotting the percent (%) inhibition against compound concentration and fitting the data to a constrained four parameter sigmoidal curve, as known in the art.

T1 sequence (P03952 391-638 limits assumed): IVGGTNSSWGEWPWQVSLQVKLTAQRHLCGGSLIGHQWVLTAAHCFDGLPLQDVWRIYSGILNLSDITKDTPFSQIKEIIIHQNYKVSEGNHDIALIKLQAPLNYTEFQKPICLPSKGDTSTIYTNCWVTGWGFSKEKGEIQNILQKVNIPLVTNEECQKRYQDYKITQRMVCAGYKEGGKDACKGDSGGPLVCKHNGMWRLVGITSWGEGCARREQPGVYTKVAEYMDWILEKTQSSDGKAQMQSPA
T1 sequence (P03952 20-390 partner limits assumed): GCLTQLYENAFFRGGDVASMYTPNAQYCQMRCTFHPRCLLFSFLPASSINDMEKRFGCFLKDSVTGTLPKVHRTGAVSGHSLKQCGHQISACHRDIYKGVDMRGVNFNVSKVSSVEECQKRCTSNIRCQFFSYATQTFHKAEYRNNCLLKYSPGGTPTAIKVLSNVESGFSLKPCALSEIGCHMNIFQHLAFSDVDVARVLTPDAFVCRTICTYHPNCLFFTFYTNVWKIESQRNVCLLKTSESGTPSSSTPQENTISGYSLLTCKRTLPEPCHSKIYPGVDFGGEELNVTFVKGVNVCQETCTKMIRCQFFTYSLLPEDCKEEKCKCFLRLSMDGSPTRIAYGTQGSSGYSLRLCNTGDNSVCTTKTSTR

SMILES	pIC50 (Human KLKB1 protein)	pIC50 (Human thrombin)
O=C(c1ccsc1)n1nc(-c2ccc(=O)[nH]c2)cc1NCc1ccc(Cl)s1 [Entry 37, 5-(5-[(5-chlorothiophen-2-yl)methyl]amino-1-(thiophene-3-carbonyl)-1H-pyrazol-3-yl)-1,2-dihydropyridin-2-one]	5.00 to 6.00	6.00 to 7.00
O=C(c1ccsc1)n1nc(-c2ccn(CCN3CCOCC3)c(=O)c2)cc1NCc1ccc(Cl)s1 [Entry 27, 4-(5-[(5-chlorothiophen-2-yl)methyl]amino-1-(thiophene-3-carbonyl)-1H-pyrazol-3-yl)-1-[2-(morpholin-4-yl)ethyl]-1,2-dihydropyridin-2-one]	6.00 to 7.00	> 7.00
O=C(c1ccoc1)n1nc(-c2ccn(Cc3cccnc3)c(=O)c2)cc1NCc1ccc(Cl)s1 [Entry 19, 4-(5-[(5-chlorothiophen-2-yl)methyl]amino-1-(furan-3-carbonyl)-1H-pyrazol-3-yl)-1-(pyridin-3-ylmethyl)-1,2-dihydropyridin-2-one]	> 7.00	> 7.00
O=C(Cn1ccc(-c2cc(NCc3ccc(Cl)s3)n(C(=O)c3ccoc3)n2)cc1=O)N1CCOCC1 [Entry 20, 4-(5-[(5-chlorothiophen-2-yl)methyl]amino-1-(furan-3-carbonyl)-1H-pyrazol-3-yl)-1-[2-(morpholin-4-yl)-2-oxoethyl]-1,2-dihydropyridin-2-one]	5.00 to 6.00	6.00 to 7.00
O=C(c1ccsc1)n1nc(-c2cc(-c3ccccc3)[nH]c(=O)c2)cc1NCc1ccc(Cl)s1 [Entry 28, 4-(5-[(5-chlorothiophen-2-yl)methyl]amino-1-(thiophene-3-carbonyl)-1H-pyrazol-3-yl)-6-phenyl-1,2-dihydropyridin-2-one]	< 4.00	< 4.00
Cc1c[nH]c(=O)c(-c2cc(NCc3ccc(Cl)s3)n(C(=O)c3ccoc3)n2)c1 [Entry 4, 3-(5-[(5-chlorothiophen-2-yl)methyl]amino-1-(furan-3-carbonyl)-1H-pyrazol-3-yl)-5-methyl-1,2-dihydropyridin-2-one]	6.00 to 7.00	> 7.00
O=C(c1ccoc1)n1nc(-c2ccn(Cc3ccccn3)c(=O)c2)cc1NCc1ccc(Cl)s1 [Entry 18, 4-(5-[(5-chlorothiophen-2-yl)methyl]amino-1-(furan-3-carbonyl)-1H-pyrazol-3-yl)-1-(pyridin-2-ylmethyl)-1,2-dihydropyridin-2-one]	6.00 to 7.00	> 7.00
O=c1cccc(-c2cc(NCc3ccc(Cl)s3)[nH]n2)[nH]1 [Entry 47, 6-(5-[(5-chlorothiophen-2-yl)methyl]amino-1H-pyrazol-3-yl)-1,2-dihydropyridin-2-one]	< 4.00	< 4.00
O=C(c1ccsc1)n1nc(-c2cc(Br)c[nH]c2=O)cc1NCc1ccc(Cl)s1 [Entry 41, 5-bromo-3-(5-[(5-chlorothiophen-2-yl)methyl]amino-1-(thiophene-3-carbonyl)-1H-pyrazol-3-yl)-1,2-dihydropyridin-2-one]	6.00 to 7.00	> 7.00
O=C(c1ccsc1)n1nc(-c2ccn(Cc3ccccn3)c(=O)c2)cc1NCc1ccc(Cl)s1 [Entry 24, 4-(5-[(5-chlorothiophen-2-yl)methyl]amino-1-(thiophene-3-carbonyl)-1H-pyrazol-3-yl)-1-(pyridin-2-ylmethyl)-1,2-dihydropyridin-2-one]	> 7.00	> 7.00
O=C(c1ccco1)n1nc(-c2cc(-c3cccnc3)[nH]c(=O)c2)cc1NCc1ccc(Cl)s1 [Entry 15, 4-(5-[(5-chlorothiophen-2-yl)methyl]amino-1-(furan-2-carbonyl)-1H-pyrazol-3-yl)-6-(pyridin-3-yl)-1,2-dihydropyridin-2-one]	< 4.00	5.00 to 6.00
O=c1ccc(-c2cc(NCc3ccc(Cl)s3)[nH]n2)c[nH]1 [Entry 38, 5-(5-[(5-chlorothiophen-2-yl)methyl]amino-1H-pyrazol-3-yl)-1,2-dihydropyridin-2-one]	< 4.00	< 4.00
O=C(Cn1ccc(-c2cc(NCc3ccc(Cl)s3)n(C(=O)c3ccsc3)n2)cc1=O)N1CCOCC1 [Entry 26, 4-(5-[(5-chlorothiophen-2-yl)methyl]amino-1-(thiophene-3-carbonyl)-1H-pyrazol-3-yl)-1-[2-(morpholin-4-yl)-2-oxoethyl]-1,2-dihydropyridin-2-one]	5.00 to 6.00	6.00 to 7.00
COc1ccccc1C(=O)n1nc(-c2c[nH]c(=O)c(Br)c2)cc1NCc1ccc(Cl)s1 [Entry 5, 3-bromo-5-(5-[(5-chlorothiophen-2-yl)methyl]amino-1-(2-methoxybenzoyl)-1H-pyrazol-3-yl)-1,2-dihydropyridin-2-one]	5.00 to 6.00	6.00 to 7.00

Next, values leading:

pIC50 (Human KLKB1 protein)	pIC50 (Human thrombin)	SMILES
4.00 to 5.00	> 7.00	CC(C)(C)C(=O)n1nc(-c2cc(Br)[nH]c(=O)c2)cc1NCc1ccc(Cl)s1 [Entry 48, 6-bromo-4-(5-[(5-chlorothiophen-2-yl)methyl]amino-1-(2,2-dimethylpropanoyl)-1H-pyrazol-3-yl)-1,2-dihydropyridin-2-one]
4.00 to 5.00		CC(C)(C)C(=O)n1nc(-c2ccn(CC(=O)N3CCOCC3)c(=O)c2)cc1NCc1ccc(Cl)s1 [Entry 12, 4-(5-[(5-chlorothiophen-2-yl)methyl]amino-1-(2,2-dimethylpropanoyl)-1H-pyrazol-3-yl)-1-[2-(morpholin-4-yl)-2-oxoethyl]-1,2-dihydropyridin-2-one]
4.00 to 5.00	> 7.00	CC(C)(C)C(=O)n1nc(-c2cc(-c3ccccc3)c[nH]c2=O)cc1NCc1ccc(Cl)s1 [Entry 2, 3-(5-[(5-chlorothiophen-2-yl)methyl]amino-1-(2,2-dimethylpropanoyl)-1H-pyrazol-3-yl)-5-phenyl-1,2-dihydropyridin-2-one]
4.00 to 5.00		CC(C)(C)C(=O)n1nc(-c2ccc(=O)[nH]c2)cc1NCc1ccc(Cl)s1 [Entry 31, 5-(5-[(5-chlorothiophen-2-yl)methyl]amino-1-(2,2-dimethylpropanoyl)-1H-pyrazol-3-yl)-1,2-dihydropyridin-2-one]
6.00 to 7.00	> 7.00	O=C(c1ccsc1)n1nc(-c2cc[nH]c(=O)c2)cc1NCc1ccc(Cl)s1 [Entry 22, 4-(5-[(5-chlorothiophen-2-yl)methyl]amino-1-(thiophene-3-carbonyl)-1H-pyrazol-3-yl)-1,2-dihydropyridin-2-one]
5.00 to 6.00	> 7.00	O=C(c1ccoc1)n1nc(-c2cc[nH]c(=O)c2)cc1NCc1ccc(Cl)s1 [Entry 16, 4-(5-[(5-chlorothiophen-2-yl)methyl]amino-1-(furan-3-carbonyl)-1H-pyrazol-3-yl)-1,2-dihydropyridin-2-one]
6.00 to 7.00	> 7.00	CC(C)(C)C(=O)n1nc(-c2ccn(Cc3cccnc3)c(=O)c2)cc1NCc1ccc(Cl)s1 [Entry 11, 4-(5-[(5-chlorothiophen-2-yl)methyl]amino-1-(2,2-dimethylpropanoyl)-1H-pyrazol-3-yl)-1-(pyridin-3-ylmethyl)-1,2-dihydropyridin-2-one]
< 4.00		CC(C)(C)C(=O)n1nc(-c2cccc(=O)n2Cc2ccccn2)cc1NCc1ccc(Cl)s1 [Entry 44, 6-(5-[(5-chlorothiophen-2-yl)methyl]amino-1-(2,2-dimethylpropanoyl)-1H-pyrazol-3-yl)-1-(pyridin-2-ylmethyl)-1,2-dihydropyridin-2-one]
5.00 to 6.00	> 7.00	CC(C)(C)C(=O)n1nc(-c2ccn(Cc3ccccn3)c(=O)c2)cc1NCc1ccc(Cl)s1 [Entry 10, 4-(5-[(5-chlorothiophen-2-yl)methyl]amino-1-(2,2-dimethylpropanoyl)-1H-pyrazol-3-yl)-1-(pyridin-2-ylmethyl)-1,2-dihydropyridin-2-one]
5.00 to 6.00	> 7.00	CC(C)(C)C(=O)n1nc(-c2cc[nH]c(=O)c2)cc1NCc1ccc(Cl)s1 [Entry 8, 4-(5-[(5-chlorothiophen-2-yl)methyl]amino-1-(2,2-dimethylpropanoyl)-1H-pyrazol-3-yl)-1,2-dihydropyridin-2-one]
< 4.00		CC(C)(C)C(=O)n1nc(-c2cccc(=O)n2CC(=O)N2CCOCC2)cc1NCc1ccc(Cl)s1 [Entry 45, 6-(5-[(5-chlorothiophen-2-yl)methyl]amino-1-(2,2-dimethylpropanoyl)-1H-pyrazol-3-yl)-1-[2-(morpholin-4-yl)-2-oxoethyl]-1,2-dihydropyridin-2-one]
5.00 to 6.00		CC(C)(C)C(=O)n1nc(-c2cccc(=O)[nH]2)cc1NCc1ccc(Cl)s1 [Entry 43, 6-(5-[(5-chlorothiophen-2-yl)methyl]amino-1-(2,2-dimethylpropanoyl)-1H-pyrazol-3-yl)-1,2-dihydropyridin-2-one]
< 4.00		CC(C)(C)C(=O)n1nc(-c2ccc(=O)n(CC(=O)N3CCOCC3)c2)cc1NCc1ccc(Cl)s1 [Entry 32, 5-(5-[(5-chlorothiophen-2-yl)methyl]amino-1-(2,2-dimethylpropanoyl)-1H-pyrazol-3-yl)-1-[2-(morpholin-4-yl)-2-oxoethyl]-1,2-dihydropyridin-2-one]
